In paper PMC5046141, “Discovery of Isoquinolinoquinazolinones as a Novel Class of Potent PPARγ Antagonists with Anti-adipogenic Effects” (Scientific Reports, 2016):
Residue numbers refer to the chain shown, from its start.

Assays:
C285G mutant PPARγ2 = biological target: T1, C285G mutant PPARγ2 (Mus musculus, UniProt P37238, C313G); test: PPRE-Luc reporter assay with C285G mutant PPARγ2 in 3T3-L1 cells; assay type: cell-based; conditions: 5 μM, 12 h
T1 construct: expressed in transfected cells; host or cells: 3T3-L1, pCS4 CMV vector
T1 sequence (P37238 1-505 C313G): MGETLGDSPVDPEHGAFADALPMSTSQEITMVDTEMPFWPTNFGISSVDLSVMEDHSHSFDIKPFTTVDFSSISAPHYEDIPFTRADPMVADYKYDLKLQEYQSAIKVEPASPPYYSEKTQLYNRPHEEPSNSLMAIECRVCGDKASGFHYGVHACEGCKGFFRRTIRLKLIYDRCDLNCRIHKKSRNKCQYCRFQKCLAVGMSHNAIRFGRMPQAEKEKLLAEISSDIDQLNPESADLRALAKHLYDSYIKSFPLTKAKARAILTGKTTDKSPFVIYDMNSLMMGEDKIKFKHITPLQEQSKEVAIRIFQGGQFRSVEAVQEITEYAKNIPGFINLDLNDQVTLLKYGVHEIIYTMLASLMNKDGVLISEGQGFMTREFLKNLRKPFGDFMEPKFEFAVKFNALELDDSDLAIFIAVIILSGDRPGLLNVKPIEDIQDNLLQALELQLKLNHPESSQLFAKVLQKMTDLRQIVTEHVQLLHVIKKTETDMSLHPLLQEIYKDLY
T1 sequence (P28700 1-467 partner): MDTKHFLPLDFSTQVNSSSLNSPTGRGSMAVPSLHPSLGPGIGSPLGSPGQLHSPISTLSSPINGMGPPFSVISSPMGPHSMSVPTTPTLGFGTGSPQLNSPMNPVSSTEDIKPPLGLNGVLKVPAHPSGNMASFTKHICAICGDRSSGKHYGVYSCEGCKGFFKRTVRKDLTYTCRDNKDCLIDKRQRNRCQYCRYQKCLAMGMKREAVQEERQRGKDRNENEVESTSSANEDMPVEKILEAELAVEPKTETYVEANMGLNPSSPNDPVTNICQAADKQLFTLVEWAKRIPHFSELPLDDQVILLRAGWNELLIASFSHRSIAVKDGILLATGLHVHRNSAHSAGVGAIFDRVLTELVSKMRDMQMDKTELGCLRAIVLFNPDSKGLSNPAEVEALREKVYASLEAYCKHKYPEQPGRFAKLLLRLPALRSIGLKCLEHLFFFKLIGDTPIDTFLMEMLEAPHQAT
Procedure: To investigate the contribution site on the PPARγ2 to the interaction with 8o, we generated mutant forms of the PPARγ2 (Fig. 5). […] Thus, we tested Cys-to-Gly (Cys285), Arg-to-Gly (Arg288) substitution mutants of PPARγ2. […] The results indicated 8o has interaction with both Cys285 and Arg288, which are in agreement with the docking study.
Figure 5 Mutational study. Residues Cys285 and Arg288 of PPARγ are important for 8o function. The transcriptional activity was determined in 3T3-L1 cells transiently co-transfected with PPRE-driven luciferase reporter gene (PPRE-Luc) and PPARγ2 (WT) or (C285G, R288G) expression vector. After 24 h of transfection, the cells were cultured with 5 μM GW9662 and 5 μM 8o respectively for 12 h. Luciferase activity was measured after 36 h. Error bars mean ± SD of at least three experiments. ^*P < 0.05, ^**P < 0.01.
For plasmids expressing PPARγ2, full length PPARγ2 (mouse, 1518 bp: NCBI Reference Sequence: NP_035276.2) was subcloned into CMV promoter-derived mammalian expression vector (pCS4). […]
3T3-L1 cells were transfected for indicated combinations of expression plasmids along with a luciferase reporter plasmid (PPRE-Luc). […] Luciferase activities were measured using a luciferase reporter assay kit (Promega, Madison, WI, USA). […]

R288G mutant PPARγ2 = biological target: T2, R288G mutant PPARγ2 (Mus musculus, UniProt P37238, R316G); test: PPRE-Luc reporter assay with R288G mutant PPARγ2 in 3T3-L1 cells; conditions: 5 μM, 12 h
T2 sequence (P37238 1-505 R316G): T1 sequence (P37238 1-505 C313G) with G313C, R316G
T2 sequence (P28700 1-467 partner): T1 sequence (P28700 1-467 partner)

| Structure (SMILES) | effect of Cys285 to Gly substitution on the compound's inhibition of PPARγ2 activity (C285G mutant PPARγ2) | melting point | effect of Arg288 to Gly substitution on the compound's inhibition of PPARγ2 activity (R288G mutant PPARγ2) |
| --- | --- | --- | --- |
| COc1cc2cc3n(c(=O)c2cc1OC)CNc1cc(Cl)ccc1-3 [Compound 8o, 3-Chloro-10,11-dimethoxy-5H-isoquinolino[2,3-c]quinazolin-8(6H)-one] | abolished the inhibitory effect | 228.7 to 230.5 °C | abolished the inhibitory effect |
| O=C(Nc1ccccc1)c1cc([N+](=O)[O-])ccc1Cl [GW9662, reference compound] | abolished the inhibitory effect | – | – |
| COc1cc2cc3n(c(=O)c2cc1OC)CNc1ccc(Cl)cc1-3 [Compound 8n, 2-Chloro-10,11-dimethoxy-5H-isoquinolino[2,3-c]quinazolin-8(6H)-one] | – | 193.5 to 194.6 °C | – |
